Laboratory results: publication PMC12032302, “A20 attenuates oxidized self-DNA-mediated inflammation in acute kidney injury” (Signal Transduction and Targeted Therapy, 2025)
Entries after “also recorded” stand apart in the source; their conditions may differ. Residues, ends and D or L forms follow the SMILES beside them.

Legend:
HA-Tri-MUT-NEK7 = target: T1, HA-Tri-MUT-NEK7 (Mus musculus, UniProt Q9ES74, K130A/K140A/L132R); assay: BLI analysis of NEK7 and P-II, HA-Tri-MUT-NEK7; format: binding; settings: K130, L132 and K140 mutated, Fig. 7d
T1 construct: 3×HA; made in house; host or cells: HEK293T
T1 sequence (Q9ES74 whole entry K130A/L132R/K140A): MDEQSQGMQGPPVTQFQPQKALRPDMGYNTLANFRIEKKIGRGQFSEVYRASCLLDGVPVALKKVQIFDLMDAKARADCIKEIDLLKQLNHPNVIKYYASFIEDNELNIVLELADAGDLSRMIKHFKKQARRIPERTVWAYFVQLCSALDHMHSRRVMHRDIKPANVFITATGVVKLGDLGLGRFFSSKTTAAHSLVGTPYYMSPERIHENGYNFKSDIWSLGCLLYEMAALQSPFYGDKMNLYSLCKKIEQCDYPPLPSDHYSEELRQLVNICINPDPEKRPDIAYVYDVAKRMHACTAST
Description: For BLI analysis, 3×HA-WT-NEK7 or 3×HA-Tri-MUT-NEK7 plasmids were transfected into HEK293T cells. Post-transfection, proteins were purified with HA antibody via coimmunoprecipitation and then eluted with 0.1 M glycine, Ph2.0. Then, samples were neutralized with 3 M NaOH and subjected to BLI analysis.
(§1) Mouse HA-NEK7, FlAG-A20, and NLRP3 cDNA were amplified by employing standard PCR techniques from a mouse cDNA library. Subsequently, diverse cDNAs were inserted into mammalian expression vectors pcDNA3.1(+), pRK5, or pCMV6 with 3×Flag or 3×HA tags. For transient transfections, Lipofectamine 3000 was utilized according to the manufacturer’s instructions.
Bio-Layer Interferometry (BLI) analysis
The peptide (Bootech BioScience &Technology) was immobilized separately on Octet® AR2G Biosensors (Sartorius, Lot#2308017311) at a concentration of 400 μg/ml for 500 s. Association and dissociation curves were obtained through the addition of a dilution series of recombinant human NEK7 protein (SinoBiological, CAT#11534-H20B) (39.0625 to 1250 nM) for 120 s followed by dissociation for 120 s. Interference patterns for association or dissociation were measured in real-time to generate a response profile on the Octet® System Octet 96 Red instrument (Sartorius). A 1:1 binding model was used to evaluate the Kinetic parameter.

[1] = system: HA-NEK7 Tri-MUT (K130, L132 and K140); assay: biotin-P-II immunoprecipitation of HA-NEK7 Tri-MUT; format: binding, mouse; settings: co-IP with biotin-labeled P-II, HEK293T lysates, overnight 4 °C, immunoblot; Fig. 7c
Description: For biotin mediated immunoprecipitation, plasmids of HA-NEK7 (WT, K130A, L132R, K140A and Tri-MUT) were transfected into HEK293T cells for 2 days. Then, cells were lysed in MLB with inhibitor cocktail for 10 min at 4 °C. Cell lysates were collected and centrifuged at 12,000 rpm for 15 min at 4 °C and the supernatant was incubated with biotin conjunction peptide overnight at 4 °C. On the next day, streptavidin magnetic beads(Invitrogen, Lot#91221939) were added and incubated for 1 h. The immunocoprecipitated protein was then subjected to washing, heating, and western blot analysis.
as §1

BMDMs = assay: ox-dsDNA-induced pyroptosis in BMDMs (GSDMD cleavage, IL-1β, IL-18, LDH release); format: cell-based, mouse; settings: ox-dsDNA90, 12 h pretreated P-II (0, 5, 10, 20 μM), n = 3, Supplementary Fig. 4f-i
Description: Primary bone marrow-derived macrophages (BMDMs) were isolated from 6- to 8-week-old C57BL/6J male mice. The mice were sacrificed and soaked in 75% alcohol for 1–2 min. The femurs and tibias were removed and immersed in PBS containing 500 U/mL penicillin and […] streptomycin for 3 min. The marrow cavities were repeatedly rinsed with DMEM using a sterile 1 mL syringe. The cell suspension was collected and centrifuged at 300 × g for 10 min, and the supernatant was discarded. The cell pellet was resuspended in 5 mL red cell lysis buffer (Bio Sharp, Cat#BL503A) on ice for 5 min, followed by centrifugation, and the supernatant was removed. The cells were then resuspended in DMEM complete culture medium supplemented with 10% FBS and 30% L929 cell-conditioned medium as an induction factor.[51] Half of the medium was changed every other day for 5–7 days. The suspended cells were removed, and the adherent BMDMs were digested with trypsin and plated on a six-well plate at a density of 1 × 10^6 cells/well. […]
To measure the levels of CXCL10, IFN-β, IL-1β, and IL-18, mouse serum or cell culture medium was collected and measured by ELISA (NeoBioscience, China) according to the manufacturer’s instructions.
To measure the release of LDH, cell culture medium was collected and measured by CytoTox96@Non-Radio cytotoxicity Assay (Promega, REF#G1781) according to the manufacturer’s instructions.

**Q.** Which “affinity of NEK7 for P-II, effect of simultaneous mutation of three residues” value (HA-Tri-MUT-NEK7) does the source give for `CSCC[C@H](NC(=O)[C@H](Cc1ccc(O)cc1)NC(=O)[C@H](CCC(N)=O)NC(=O)[C@H](CS)NC(=O)[C@H](C)NC(=O)[C@H](C)NC(=O)[C@H](Cc1c[nH]cn1)NC(=O)[C@H](CCSC)NC(=O)[C@H](CC(C)C)NC(=O)[C@H](CS)NC(=O)[C@H](CC(N)=O)NC(=O)CNC(=O)[C@H](CC(=O)O)NC(=O)CNC(=O)[C@H](CC(N)=O)NC(=O)[C@@H](NC(=O)[C@H](CCCCN)NC(=O)[C@H](CC(C)C)NC(=O)[C@H](C)NC(=O)[C@@H](NC(=O)[C@H](CC(C)C)NC(=O)[C@@H](N)CCCCN)C(C)C)[C@@H](C)O)C(=O)N[C@@H](Cc1c[nH]c2ccccc12)C(=O)NCC(=O)N[C@H](C(=O)N[C@@H](CCC(N)=O)C(=O)N[C@@H](CC(=O)O)C(=O)N[C@H](C(=O)N[C@@H](CC(=O)O)C(=O)O)[C@@H](C)O)C(C)C` [P-II] (H-KLVALKTNGDGNCLMHAACQYMWGVQDTD-OH; N-terminus and C-terminus assumed) here?
**A.** abrogated the affinity of NEK7 for P-II

**Q.** What about the “binding of NEK7 and P-II, effect of simultaneous mutation of three residues” value [1] of the same compound?
**A.** significantly attenuate the binding of NEK7 and P-II

**Q.** And the “inhibition of ox-DNA-induced pyroptosis” value (BMDMs)?
**A.** significantly alleviates ox-dsDNA-induced pyroptosis; also recorded: inhibiting ox-self-DNA-induced pyroptosis
